Source: US8293729B2 (Boehringer Ingelheim International GmbH, priority 2009, dated 2012)
Read-outs that look alike come from different tables or passages of the source.

Molecular target: T1, human GPR119 receptor (Homo sapiens, UniProt Q8TDV5, S329A/T327A)
T1 construct: N-terminal leader […]; expressed in transfected cells
T1 sequence (Q8TDV5 with tags, fused parts or gaps T327A/S329A): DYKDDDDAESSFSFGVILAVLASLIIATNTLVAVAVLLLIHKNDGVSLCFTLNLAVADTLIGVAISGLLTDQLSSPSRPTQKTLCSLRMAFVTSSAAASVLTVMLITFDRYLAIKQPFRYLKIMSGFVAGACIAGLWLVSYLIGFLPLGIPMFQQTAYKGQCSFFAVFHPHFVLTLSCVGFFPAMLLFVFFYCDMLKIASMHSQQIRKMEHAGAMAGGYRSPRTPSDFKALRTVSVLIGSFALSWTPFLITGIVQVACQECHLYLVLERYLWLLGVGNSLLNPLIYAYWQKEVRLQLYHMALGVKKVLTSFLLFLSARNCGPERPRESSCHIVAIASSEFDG
Experiment: cAMP assay (LANCE cAMP-384) in HEK293 cells stably expressing mutant human GPR119 receptor
Format: cell-based
Settings: for activation at 10 µM: HEK293, 20 min
Procedure: Quantitative detection of cAMP accumulation from cells expressing human GPR119 receptor was achieved using Perkin Elmer's LANCE cAMP-384 Kit (Cat#AD0264) according to the manufacturer's protocol. Briefly, HEK293 cells stably expressing a mutant form of the human GPR119 receptor (Methionine 1 replaced with the amino acid sequence […] (SEQ ID NO: 1), and T327 & S329 changed to alanines) were grown to 50-70% confluency in cell culture media (DMEM, 10% heat inactivated Fetal Bovine Serum, 50 I.U./mL penicillin, 50 μg/mL streptomycin, 10 mM HEPES, 20 μg/mL G418 Sulfate). On the day of the assay, GPR119 stable HEK293 cells were lifted from the tissue culture plate and 1000 cells/well were incubated along with various concentrations of test compounds for 20 min at 37° C. Detection Buffer (50mM HEPES, 10mM calcium chloride, 0.35% Triton X-100, 1 mg/mL BSA) containing cAMP-specific antibody was then added to all wells and allowed to equilibrate in the dark for 10 minutes at room temperature. Upon equilibration, Detection Buffer containing europium-labeled cAMP tracer complex was added to all wells and allowed to react for 1 hour at room temperature. After 1 hour, bound europium-labeled cAMP tracer was measured using a Perkin Elmer ViewLux. The quantity of cAMP generated in each well was derived from a standard curve. EC50 was determined using nonlinear regression analysis of the cAMP values over a range of agonist concentration (12 points spanning the range from 30 μM to 100pM).
For some compounds for which no EC50 value could be determined, the efficacy is provided at a single concentration (10 μM) yielding % stimulation values.

[1] = single concentration 10 μM, given where no EC50 value could be determined, read-out: % stimulation at 10 μM
[2] = cAMP accumulation, HEK293 cells stably expressing mutant human GPR119, read-out: EC50
[3] = the 43rd table, compounds 75-1 to 75-38, read-out: EC50
[4] = the 19th table, unit inferred, read-out: EC 50
[5] = the 34th table, compounds 65-1 to 65-24, read-out: EC50
[6] = the 36th table, compounds 66-1 to 66-51, read-out: EC50

`CC(C)OC(=O)N1CCC(ON=C2CCN(c3cc(F)c(-c4nnn[nH]4)cc3F)CC2)CC1` [Example 27-28] showed an activation at 10 µM [1] of 86%.

`CS(=O)(=O)c1ccc(N2CCC(=NOC3CCN(C(=O)OCCn4cccc4)CC3)CC2)c(F)c1` [Example 64-18] was tested, and the EC50 (the 33rd table, read-out: EC50) was 461 nM.

`CC(=O)NCc1cc(F)c(N2CCC(=NOC3CCN(C(=O)OC(C)C)CC3)CC2)cc1F` [Example 16-2] showed an EC50 [2] of 141 nM.

With `CS(=O)(=O)c1ccc(N2CCC(=NOC3CCN(C(=O)O[C@H]4CNC(=O)C4)CC3)CC2)c(F)c1` [Example 64-11] the EC50 (the 33rd table, read-out: EC50) was greater than 10000 nM.

`CC(C)OC(=O)N1CCC(ON=C2CCN(c3cc(F)c(CN4CCOCC4)cc3F)CC2)CC1` [Example 5-4] was tested, and the activation at 10 µM [1] was 69%.

`COC(=O)[C@@H](C)COC(=O)N1CCC(ON=C2CCN(c3ccc(S(C)(=O)=O)cc3F)CC2)CC1` [Example 64-24] was tested, and the EC50 (the 33rd table, read-out: EC50) was 708 nM.

Work on `CC(C)OC(=O)N1CCC(ON=C2CCN(c3cc(F)c(CC(=O)N4CCC(CN)CC4)cc3F)CC2)CC1` [Example 75-9] yielded an EC50 [3] of 144 nM.

`CCc1cnc(N2CCC(ON=C3CCN(c4cc(F)c(C(=O)N5CC[C@H](CN)C5)cc4F)CC3)CC2)nc1` [Example 29-120] gave an EC50 [4] of 202 nM.

`CC(C)OC(=O)N1CCC(ON=C2CCN(c3cc(F)c(C(=O)N4CCCC(CN5CCCCC5)C4)cc3F)CC2)CC1` (stereo not shown) [Example 29-56] gave an EC50 (the 15th table, read-out: EC50) of 133 nM.

`CCc1cnc(N2CCC(ON=C3CCN(c4cc(F)c(C(=O)N5CCNC[C@@H]5C)cc4F)CC3)CC2)nc1` [Example 29-110] was tested, and the EC50 [4] was 256 nM.

`COC(=O)/C=C/c1cc(F)c(N2CCC(=NOC3CCN(C(=O)OC(C)C)CC3)CC2)cc1F` [Example 39-1, 4-{1-[2,5-Difluoro-4-((E)-2-methoxycarbonyl-vinyl)-phenyl]-piperidin-4-ylideneaminooxy}-piperidine-1-carboxylic acid isopropyl ester] gave an EC50 (the 25th table, read-out: EC50) of 46 nM.

Molecule `CC(C)(C)COC(=O)N1CCC(ON=C2CCN(c3ccc(S(C)(=O)=O)cc3F)CC2)CC1` [Example 65-7] has an EC50 [5] of 57 nM.

`CC(C)OC(=O)N1CCC(ON=C2CCN(c3cc(F)c(CO)cc3F)CC2)CC1` [Example 48-1, 4-[1-(2,5-Difluoro-4-hydroxymethyl-phenyl)-piperidin-4-ylideneaminooxy]-piperidine-1-carboxylic acid isopropyl ester] showed an EC50 (the 27th table, read-out: EC50) of 9 nM.

For `CC(C)OC(=O)N1CCC(ON=C2CCN(c3ncc(-n4cccn4)cn3)CC2)CC1` [Example 51-5], the activation at 10 µM (10 μM, the 28th table, read-out: stimulation in % at 10 μM) was 96%.

Work on `CCc1cnc(N2CCC(ON=C3CCN(c4cc(F)c(C(=O)NCC5CCNCC5)cc4F)CC3)CC2)nc1` [Example 29-128] yielded an EC50 [4] of 70 nM.

Molecule `CC(C)OC(=O)N1CCC(ON=C2CCN(c3cc(F)c(CC(=O)N4CCCCC4CN(C)C)cc3F)CC2)CC1` (stereo not shown) [Example 75-36] has an EC50 [3] of 322 nM.

For `CCc1ccc([C@H](C)N2CCC(ON=C3CCN(c4cc(F)c(S(C)(=O)=O)cc4F)CC3)CC2)cc1` [Example 66-63], the EC50 (the 37th table, compounds 66-52 to 66-64, read-out: EC50) was 294 nM.

`CC(C)OC(=O)N1CCC(ON=C2CCN(c3cc(F)c(Cn4cncn4)cc3F)CC2)CC1` [Example 14-18] gave an EC50 [2] of 1350 nM.

`CC(C)(C)OC(=O)N1CCC(ON=C2CCN(c3ccc(S(C)(=O)=O)cc3F)CC2)CC1` [Example 1-1, tert-Butyl 4-[1-(2-Fluoro-4-methanesulfonylphenyl)piperidin-4-ylideneaminooxy]piperidine-1-carboxylate] was tested, and the EC50 [2] was 29 nM.

Work on `CC(C)OC(=O)N1CCC(ON=C2CCN(c3ncnc(F)c3F)CC2)CC1` [Example 2-58] yielded an EC50 [2] of 603 nM.

In the case of `CCc1cnc(N2CCC(ON=C3CCN(c4cc(F)c(C(=O)NCC5COCCN5)cc4F)CC3)CC2)nc1` (stereo not shown) [Example 29-87], the EC50 [4] is reported as 128 nM.

`CS(=O)(=O)c1ccc(N2CCC(=NOC3CCN(C(=S)NC4CCCCC4)CC3)CC2)c(F)c1` [Example 65-9] showed an EC50 [5] of 1800 nM.

With `CN(C)CCCCOC(=O)N1CCC(ON=C2CCN(c3ccc(S(C)(=O)=O)cc3F)CC2)CC1` [Example 64-21] the EC50 (the 33rd table, read-out: EC50) was greater than 10000 nM.

For `CC(C)OC(=O)N1CCC(ON=C2CCN(c3ncc(N4CCCC4=O)cc3F)CC2)CC1` [Example 51-3], the EC50 (the 28th table, read-out: EC50) was 401 nM.

`Cn1cc(Cl)c(CN2CCC(ON=C3CCN(c4ccc(S(C)(=O)=O)cc4F)CC3)CC2)n1` [Example 66-5] showed an EC50 [6] greater than 10000 nM.

`COCCNC(=O)c1cc(F)c(N2CCC(=NOC3CCN(C(=O)OC(C)C)CC3)CC2)cc1F` [Example 29-12] gave an EC50 (the 15th table, read-out: EC50) of 12 nM.

With `CC#CCOC(=O)N1CCC(ON=C2CCN(c3ccc(S(C)(=O)=O)cc3F)CC2)CC1` [Example 64-4] the EC50 (the 33rd table, read-out: EC50) was 152 nM.

`CC(C)OC(=O)N1CCC(ON=C2CCN(c3ccc(CO)cc3)CC2)CC1` [Example 2-53] gave an EC50 [2] greater than 10000 nM.

`CC(C)OC(=O)N1CCC(ON=C2CCN(c3cc(F)c(CC(=O)N4CCC(N)CC4)cc3F)CC2)CC1` [Example 75-12] showed an EC50 [3] of 92 nM.

Molecule `C=C(C)OC(=O)N1CCC(ON=C2CCN(c3ccc(S(C)(=O)=O)cc3F)CC2)CC1` [Example 65-15] has an EC50 [5] of 64 nM.

`CC(C)OC(=O)N1CCC(ON=C2CCN(c3cc(F)c(C(N)=O)cc3F)CC2)CC1` [Example 2-32] gave an EC50 [2] of 25 nM.

Molecule `CC(C)OC(=O)N1CCC(ON=C2CCN(c3cc(Cl)c(F)cc3C(=O)O)CC2)CC1` [Example 2-21] has an EC50 [2] greater than 10000 nM.

`CS(=O)(=O)c1ccc(N2CCC(=NOC3CCN(Cc4cscn4)CC3)CC2)c(F)c1` [Example 66-11] gave an EC50 [6] greater than 10000 nM.

In the case of `CC(C)OC(=O)N1CCC(ON=C2CCN(c3cc(F)c(CC(=O)N4CCNCC4)cc3F)CC2)CC1` [Example 75-25], the EC50 [3] is reported as 92 nM.

For `CC(C)OC(=O)N1CCC(ON=C2CCN(c3cc(F)c(CC(=O)NCCN(C)C)cc3F)CC2)CC1` [Example 75-1, 4-(1-{4-[(2-dimethylamino-ethylcarbamoyl)-methyl]-2,5-difluoro-phenyl}-piperidin-4-ylideneaminooxy)-piperidine-1-carboxylic acid isopropyl ester], the EC50 [3] was 254 nM.

Molecule `CC(C)OC(=O)N1CCC(ON=C2CCN(c3cc(F)c(Cn4cnc5ncccc54)cc3F)CC2)CC1` [Example 14-5] has an EC50 [2] of 374 nM.

With `CC(C)OC(=O)N1CCC(ON=C2CCN(c3cc(F)c(Cn4ccnc4)cc3F)CC2)CC1` [Example 14-4] the EC50 [2] was 268 nM.

`CCc1cnc(N2CCC(ON=C3CCN(c4cc(F)c(CC(=O)N5CCNCC5)cc4F)CC3)CC2)nc1` [Example 77-13] showed an EC50 (the 44th table, compounds 77-1 to 77-14, read-out: EC50) of 39 nM.

For `CC(C)OC(=O)N1CCC(ON=C2CCN(c3ccc(CO)cc3F)CC2)CC1` [Example 52-3], the EC50 (the 29th table, read-out: EC50) was 128 nM.

In the case of `CC(C)OC(=O)N1CCC(ON=C2CCN(c3ccc(S(C)(=O)=O)cn3)CC2)CC1` [Example 46-3], the EC50 (the 26th table, read-out: EC50) is reported as 614 nM.

`CC(C)OC(=O)N1CCC(ON=C2CCN(c3cc(F)c(CNS(=O)(=O)C(C)C)cc3F)CC2)CC1` [Example 16-5] was tested, and the EC50 [2] was 142 nM.

In the case of `CS(=O)(=O)c1ccc(N2CCC(=NOC3CCN(C(=O)OCCN4CCCC4)CC3)CC2)c(F)c1` [Example 64-20], the EC50 (the 33rd table, read-out: EC50) is reported as greater than 10000 nM.

`CC(C)OC(=O)N1CCC(ON=C2CCN(c3ccc(CO)c(F)c3)CC2)CC1` [Example 52-1, 4-[1-(3-Fluoro-4-hydroxymethyl-phenyl)-piperidin-4-ylideneaminooxy]-piperidine-1-carboxylic acid isopropyl ester] gave an EC50 (the 29th table, read-out: EC50) greater than 10000 nM.

In the case of `C#CCOC(=O)N1CCC(ON=C2CCN(c3ccc(S(C)(=O)=O)cc3F)CC2)CC1` [Example 64-3], the EC50 (the 33rd table, read-out: EC50) is reported as 446 nM.

Work on `Cc1ncccc1N1CCC(=NOC2CCN(C(=O)OC(C)C)CC2)CC1` [Example 4-1, Isopropyl 4-(2′-Methyl-2,3,5,6-tetrahydro-[1,3′]bipyridinyl-4-ylideneaminooxy)piperidine-1-carboxylate] yielded an EC50 [2] of 4800 nM.

`CS(=O)(=O)c1ccc(N2CCC(=NOC3CCN(c4ccc(S(C)(=O)=O)cc4F)CC3)CC2)c(F)c1` [Example 63-22] showed an EC50 (the 32nd table, read-out: EC50) of 397 nM.
